Results as given in article PMC3900240 (Biochimica et biophysica acta, 2013).

Target: T1, SoArsAB (Sporomusa ovata, UniProt F6MZ55+F6MZ56)
T1 sequence (F6MZ55 5-350 limits assumed): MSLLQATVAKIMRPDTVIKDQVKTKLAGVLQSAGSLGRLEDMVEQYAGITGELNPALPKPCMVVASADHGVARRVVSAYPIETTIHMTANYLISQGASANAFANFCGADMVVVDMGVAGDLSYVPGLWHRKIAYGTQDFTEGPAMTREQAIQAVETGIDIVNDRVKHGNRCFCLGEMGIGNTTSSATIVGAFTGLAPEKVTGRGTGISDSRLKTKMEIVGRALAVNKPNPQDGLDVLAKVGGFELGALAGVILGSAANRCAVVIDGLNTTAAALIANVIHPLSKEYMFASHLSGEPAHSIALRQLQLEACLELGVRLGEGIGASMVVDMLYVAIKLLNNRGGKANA
T1 sequence (F6MZ56 1-350): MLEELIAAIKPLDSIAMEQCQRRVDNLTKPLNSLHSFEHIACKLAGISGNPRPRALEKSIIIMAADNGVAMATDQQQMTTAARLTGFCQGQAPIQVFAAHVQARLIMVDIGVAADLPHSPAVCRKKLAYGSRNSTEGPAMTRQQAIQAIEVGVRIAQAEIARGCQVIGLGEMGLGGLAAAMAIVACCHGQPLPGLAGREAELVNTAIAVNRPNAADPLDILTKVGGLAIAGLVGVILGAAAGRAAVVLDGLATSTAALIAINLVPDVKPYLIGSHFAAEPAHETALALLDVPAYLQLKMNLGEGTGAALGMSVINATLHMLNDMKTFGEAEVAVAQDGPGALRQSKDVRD
Experiment: HPLC product formation
Format: biochemical
Conditions: pH 10, 37 °C, 6 h

| SMILES | HPLC product formation (3 mM p-cresol) | HPLC product formation (3 mM NaMN) |
| --- | --- | --- |
| O=C([O-])c1ccc[n+]([C@@H]2O[C@H](COP(=O)(O)O)[C@@H](O)[C@H]2O)c1 [NaMN, nicotinate mononucleotide] | using SeCobT^WT, SeCobT^S80Y,Q88M,L175M or SoArsAB with NaMN and p-cresol |  |
| Cc1ccc(O)cc1 [p-cresol] |  | using SeCobT^WT, SeCobT^S80Y,Q88M,L175M or SoArsAB with NaMN and p-cresol |
